Legend:
ROCK1 = ROCK1 (Homo sapiens (Human), UniProt Q13464); assay: ROCK1 kinase IC50 assay (biological test method similar to the ROCK2 assay); format: biochemical
In short: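 HTRF KinEASE-STK S2 assay with the STK-S2 biotinylated substrate and ATP, at 5× working solutions of 1.5 µM each. Kinase reaction with 9-point compound dilutions ran 2 h at room temperature, followed by 1 h streptavidin-XL665/Cryptate detection. The 665/615 nm ratio was normalised to no-compound and no-kinase wells, and IC50 was obtained by curve fitting.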

ROCK2 = ROCK2 (Homo sapiens, UniProt O75116); assay: ROCK2 kinase IC50 assay (CISBIO HTRF KinEASE-STK S2 kit); format: biochemical; details: incubated at room temperature for 2 hours
In short: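 HTRF KinEASE-STK S2 format with recombinant ROCK2 (1.4 ng per well), STK-S2 substrate and ATP from 5× working solutions of 1.5 μM each, run 2 h at room temperature. Nine-point dilutions from 10000 nM top concentration; 665/615 nm emission ratio normalised to no-compound and no-kinase controls, curve-fitted for IC50.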

ROCK1, sequence (Q13464 whole entry, species assumed): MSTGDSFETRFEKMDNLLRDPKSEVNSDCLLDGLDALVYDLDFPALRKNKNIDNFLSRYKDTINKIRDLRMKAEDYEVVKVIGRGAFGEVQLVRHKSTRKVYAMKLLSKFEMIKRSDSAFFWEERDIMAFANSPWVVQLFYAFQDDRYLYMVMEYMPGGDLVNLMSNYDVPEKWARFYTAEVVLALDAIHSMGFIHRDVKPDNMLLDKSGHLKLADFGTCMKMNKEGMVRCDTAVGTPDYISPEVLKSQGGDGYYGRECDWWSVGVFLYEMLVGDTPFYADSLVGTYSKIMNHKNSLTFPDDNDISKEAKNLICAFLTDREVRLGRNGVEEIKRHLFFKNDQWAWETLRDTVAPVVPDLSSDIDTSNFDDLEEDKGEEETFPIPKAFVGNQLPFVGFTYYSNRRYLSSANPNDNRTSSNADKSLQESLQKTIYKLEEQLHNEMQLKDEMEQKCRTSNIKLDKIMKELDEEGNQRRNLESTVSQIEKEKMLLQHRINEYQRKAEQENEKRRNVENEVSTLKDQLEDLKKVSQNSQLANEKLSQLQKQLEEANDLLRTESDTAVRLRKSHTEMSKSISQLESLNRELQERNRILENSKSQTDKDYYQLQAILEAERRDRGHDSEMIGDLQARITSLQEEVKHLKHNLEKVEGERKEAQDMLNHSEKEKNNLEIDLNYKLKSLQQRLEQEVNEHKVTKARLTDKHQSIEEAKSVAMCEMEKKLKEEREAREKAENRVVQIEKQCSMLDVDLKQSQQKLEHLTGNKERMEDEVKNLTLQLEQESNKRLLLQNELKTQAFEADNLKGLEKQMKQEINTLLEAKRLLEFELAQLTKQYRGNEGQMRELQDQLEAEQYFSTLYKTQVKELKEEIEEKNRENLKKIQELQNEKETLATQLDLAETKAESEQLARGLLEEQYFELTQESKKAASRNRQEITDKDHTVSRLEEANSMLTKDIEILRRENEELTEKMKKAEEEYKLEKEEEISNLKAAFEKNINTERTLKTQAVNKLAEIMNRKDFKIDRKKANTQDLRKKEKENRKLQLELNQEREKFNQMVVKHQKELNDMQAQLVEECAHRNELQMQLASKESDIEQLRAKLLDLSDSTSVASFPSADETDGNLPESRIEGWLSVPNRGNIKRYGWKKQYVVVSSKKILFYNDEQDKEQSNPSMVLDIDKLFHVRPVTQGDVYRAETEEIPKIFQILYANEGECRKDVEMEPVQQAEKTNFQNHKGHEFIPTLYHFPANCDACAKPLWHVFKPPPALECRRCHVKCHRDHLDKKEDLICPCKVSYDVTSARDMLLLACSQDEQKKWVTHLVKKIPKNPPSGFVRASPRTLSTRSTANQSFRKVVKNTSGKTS

| Compound | IC50 (ROCK1) | IC50 (ROCK2) |
| --- | --- | --- |
| O=C(C1CC(F)(F)C1)N1Cc2ccc(-c3ncc(F)c(Nc4ccc(-c5cn[nH]c5)cc4F)n3)cc2C1 [TDI01598, (3,3-difluorocyclobutyl)(5-(5-fluoro-4-((2-fluoro-4-(1H-pyrazol-4-yl)phenyl)amino)pyrimidin-2-yl)isoindolin-2-yl)methanone] | > 10000 nM | 216 nM |
| O=C(OC1CC(F)(F)C1)N1Cc2ccc(-c3ncc(F)c(Nc4ccc5[nH]ncc5c4)n3)cc2C1 [TDI01613, 3,3-difluorocyclobutyl 5-(4-((1H-indazol-5-yl)amino)-5-fluoropyrimidin-2-yl)isoindoline-2-carboxylate] | > 10000 nM | 27 nM |
| O=C(C1CC(F)(F)C1)N1CCc2cc(-c3ncc(F)c(Nc4ccc(-c5cn[nH]c5)cc4)n3)ccc21 [TDI01618A, (5-(4-((4-(1H-pyrazol-4-yl)phenyl)amino)-5-fluoropyrimidin-2-yl)indolin-1-yl)(3,3-difluorocyclobutyl) methanone] | > 10000 nM | 129 nM |
| O=C(OC1CC(F)(F)C1)N1CCc2cc(-c3nccc(Nc4ccc(-c5cn[nH]c5)cc4)n3)ccc2C1 [TDI01621, 3,3-difluorocyclobutyl 6-(4-((4-(1H-pyrazol-4-yl)phenyl)amino)pyrimidin-2-yl)-3,4-dihydroisoquinoline-2(1H)-carboxylate] | > 10000 nM | 219 nM |
| CC1(C(=O)N2Cc3ccc(-c4ncc(F)c(Nc5ccc(-c6cn[nH]c6)cc5)n4)cc3C2)CC(F)(F)C1 [TDI01628, (5-(4-((4-(1H-pyrazol-4-yl)phenyl)amino)-5-fluoropyrimidin-2-yl)isoindolin-2-yl)(3,3-difluoro-1-methylcyclobutyl) methanone] | > 10000 nM | 28 nM |
| O=C(OC1CC2(CNC2)C1)N1Cc2ccc(-c3nccc(Nc4ccc(-c5cn[nH]c5)cc4)n3)cc2C1 [TDI01634, 2-azaspiro[3.3]heptan 6-yl 5-(4-((4-(1H-pyrazol-4-yl)phenyl)amino)pyrimidin-2-yl)isoindoline-2-carboxylate] | 2040 nM | 16 nM |
| O=C(OC1CCC(F)(F)CC1)N1CCc2cc(-c3nccc(Nc4ccc(-c5cn[nH]c5)cc4)n3)ccc2C1 [TDI01656, 4,4-difluorocyclohexyl 6-(4-((4-(1H-pyrazol-4-yl)phenyl)amino)pyrimidin-2-yl)-3,4-dihydroisoquinoline-2(1H)-carboxylate] | > 10000 nM | 442 nM |
| COCc1cnc(-c2ccc3cc(C(=O)N4CC(F)(F)C4)n(C)c3c2)nc1Nc1ccc(-c2cn[nH]c2)cc1 [TDI01668, (6-(4-((4-(1H-pyrazol-4-yl)phenyl)amino)-5-(methoxymethyl)pyrimidin-2-yl)-1-methyl-1H-indol-2-yl)(3,3-difluoroazetidin-1-yl)methanone] | > 10000 nM | 42 nM |
| O=C(c1cc2ccc(-c3ncc(F)c(Nc4ccc(-c5cn[nH]c5)cc4)n3)cc2s1)N1CC(F)(F)C1 [TDI01675, (6-(4-((4-(1H-pyrazol-4-yl)phenyl)-amino)-5-fluoro-pyrimidin-2-yl)benzo[b]-thiophen-2-yl)(3,3-difluoroazetidin-1-yl)methanone] | > 10000 nM | 84 nM |
| CC1(C(=O)N2CCc3ccc(-c4nccc(Nc5ccc(-c6cn[nH]c6)cc5)n4)cc3C2)CC(F)(F)C1 [TDI01676, (7-(4-((4-(1H-pyrazol-4-yl)phenyl)amino)pyrimidin-2-yl)-3,4-dihydroisoquinolin-2(1H)-yl)(3,3-difluoro-1-methylcyclobutyl) methanone] | > 10000 nM | 242 nM |
| Cn1c(C(=O)N2CC(F)(F)C2)cc2ccc(-c3ncc(C(F)(F)F)c(Nc4ccc(-c5cn[nH]c5)cc4)n3)cc21 [TDI01681, (6-(4-((4-(1H-pyrazol-4-yl)phenyl)amino)-5-(trifluoromethyl)pyrimidin-2-yl)-1-methyl-1H-indol-2-yl)(3,3-difluoroazetidin-1-yl)methanone] | > 10000 nM | 238 nM |
| O=C(C1CC(F)(F)C1)N1CCc2cc(-c3nccc(Nc4ccc5[nH]ncc5c4)n3)ccc2C1 [TDI01683, (6-(4-((1H-indazol-5-yl)amino)pyrimidin-2-yl)-3,4-dihydroisoquinolin-2(1H)-yl)(3,3-difluorocyclobutyl)methanone] | > 10000 nM | 360 nM |
| CC(NC(=O)c1cc2ccc(-c3nccc(Nc4ccc(-c5cn[nH]c5)cc4)n3)cc2n1C)C(F)(F)F (stereo not shown) [TDI01691] | 159 nM | 6 nM |
| COc1cnc(-c2ccc3cc(C(=O)Nc4ccnnc4)[nH]c3c2)nc1Nc1ccc2[nH]ncc2c1 [TDI01813, 6-(4-((1H-indazol-5-yl)amino)-5-methoxy-pyrimidin-2-yl)-N-(pyridazin-4-yl)-1H-indole-2-carboxamide] | > 10000 nM | 90 nM |
| c1ccc2oc(-c3cc4ccc(-c5nccc(Nc6ccc7[nH]ncc7c6)n5)cc4[nH]3)nc2c1 [TDI01816, N-(2-(2-(benzo[d]oxazol-2-yl)-1H-indol-6-yl]pyrimidin-4-yl)-1H-indazol-5-amine] | 6010 nM | 111 nM |
| c1cc(Nc2ccc(-c3cn[nH]c3)cc2)nc(-c2ccc3cc(-c4nccs4)[nH]c3c2)n1 [TDI01826, N-(4-(1H-pyrazol-4-yl)phenyl)-2-(2-(thiazol-2-yl)-1H-indol-6-yl)pyrimidin-4-amine] | > 10000 nM | 75 nM |
| COc1cc(Nc2ccnc(-c3ccc4cc(C(=O)N(C)C)[nH]c4c3)n2)ccc1-c1cn[nH]c1 [TDI01832, 6-(4-((3-methoxy-4-(1H-pyrazol-4-yl)phenyl)ami-no)pyrimidin-2-yl)-N, N-dimethyl-1H-indole-2-carboxamide] | > 10000 nM | 167 nM |
| O=C(NC1CCCN(c2ccncc2)C1)c1cc2ccc(-c3nccc(Nc4ccc5[nH]ncc5c4)n3)cc2[nH]1 (stereo not shown) [TDI01840, 6-(4-((1H-indazol-5-yl)amino)-pyrimidin-2-yl)-N-(1-(pyridin-4-yl)piperidin-3-yl)-1H-indole-2-carboxamide] | 89 nM | 5 nM |
| Cn1c(C(=O)Nc2ccncc2Cl)cc2ccc(-c3nccc(Nc4ccc5[nH]ncc5c4)n3)cc21 [TDI01841, 6-(4-((1H-indazol-5-yl)amino)-pyrimidin-2-yl)-N-(3-chloropyridin-4-yl)-1-methyl-1H-indole-2-carboxamide] | 1000 nM | 11 nM |
| CN(C)C(=O)c1cc2ccc(-c3nccc(Nc4ccc(-c5cn[nH]c5)c(F)c4)n3)cc2[nH]1 [TDI01842, 6-(4-((3-fluoro-4-(1H-pyrazol-4-yl)phenyl)ami-no)pyrimidin-2-yl)-N, N-dimethyl-1H-indole-2-carboxamide] | 3000 nM | 120 nM |
| O=C(Nc1ccnnc1)c1cc2ccc(-c3ncc(Cl)c(Nc4ccc5[nH]ncc5c4)n3)cc2[nH]1 [TDI01844, 6-(4-((1H-indazol-5-yl)amino)-5-chloropyrimidin-2-yl)-N-(pyridazin-4-yl)-1H-indole-2-carboxamide] | > 10000 nM | 370 nM |
| Cn1c(C(=O)N2CC(F)(F)C2)cc2ccc(-c3nc(Nc4ccc(-c5cn[nH]c5)cc4)c4c(n3)OCCO4)cc21 [TDI01851, (6-(4-((4-(1H-pyrazol-4-yl)phenyl)amino)-6,7-dihydro-[1,4]dioxino[2,3-d]pyrimidin-2-yl)-1-methyl-1H-indol-2-yl)(3,3-difluoroazetidin-1-yl)methanone] | > 10000 nM | 15 nM |
| CC(C)NC(=O)N1Cc2ccc(-c3nc(Nc4ccc(-c5cn[nH]c5)cc4)c4occc4n3)cc2C1 [TDI01861, 5-(4-((4-(1H-pyrazol-4-yl)phenyl)amino)furo[3,2-d]pyrimidin-2-yl)-N-isopropylisoindoline-2-carboxamide] | > 10000 nM | 41 nM |
| CC(C)NC(=O)c1cc2ccc(-c3nc(Nc4ccc(-c5cn[nH]c5)cc4)c4ccccc4n3)cc2[nH]1 [TDI01862, 6-(4-((4-(1H-pyrazol-4-yl)phenyl)-amino)-quinazolin-2-yl)-N-isopropyl-1H-indole-2-carboxamide] | > 10000 nM | 382 nM |
| CC(C)NC(=O)c1cc2ccc(-c3nc(Nc4ccc(-c5cn[nH]c5)cc4)c4occc4n3)cc2[nH]1 [TDI01864, 6-(4-((4-(1H-pyrazol-4-yl)phenyl)ami-no)furo[3,2-d]pyrimidin-2-yl)-N-isopropyl-1H-indole-2-carboxamide] | 3000 nM | 30 nM |
| COc1cnc(-c2ccc3cc(C(=O)N(C)CC(F)(F)F)[nH]c3c2)nc1Nc1ccc(-c2cn[nH]c2)cc1 [TDI01868, 6-(4-((4-(1H-pyrazol-4-yl)phenyl)-amino)-5-methoxy-pyrimidin-2-yl)-N-methyl-N-(2,2,2-trifluoroethyl)-1H-indole-2-carboxamide] | > 10000 nM | 32 nM |
| c1cnc(-c2cc3ccc(-c4nccc(Nc5ccc(-c6cn[nH]c6)cc5)n4)cc3[nH]2)nc1 [TDI01870, N-(4-(1H-pyrazol-4-yl)phenyl)-2-(2-(pyrimidin-2-yl)-1H-indol-6-yl)pyrimidin-4-amine] | > 10000 nM | 46 nM |
| Cn1c(-n2ccnc2)cc2ccc(-c3nccc(Nc4ccc(-c5cn[nH]c5)cc4)n3)cc21 [TDI01876B, 2-(2-(1H-imidazol-1-yl)-1-methyl-1H-indol-6-yl)-N-(4-(1H-pyrazol-4-yl)phenyl)pyrimidin-4-amine] | > 10000 nM | 240 nM |
| c1ccc2sc(-c3cc4ccc(-c5nccc(Nc6ccc7[nH]ncc7c6)n5)cc4[nH]3)nc2c1 [TDI01881, N-(2-(2-(benzo[d]thiazol-2-yl)-1H-indol-6-yl)pyrimidin-4-yl)-1H-indazol-5-amine] | > 10000 nM | 161 nM |
